Test results from patent publication US20240016766A1, “PHARMACEUTICAL COMPOSITION FOR TREATMENT OF INNER EAR DISORDERS THROUGH LOCAL ADMINISTRATION IN THE TYMPANIC AREA” (priority 2020, published 2024).

Tests used:
[1] = Pharmacokinetics after single ear canal administration: concentration in perilymph (Examples 1 and 2)
Method: Pharmacokinetics study of different active agents has been conducted with ready-to-use formulations. The pharmacokinetic study consists of a single administration up to the eardrum on male Long Evans rats and assessment of the level of the active agent in middle ear area (tympanic bulla) and in the inner ear area (perilymph).
2. Route of administration: 20 μl of each formulation are delivered in the ear canal of one animal in one administration.
3. Animals: 6 male rats Long Evans, were obtained from Janvier Labs, Le Genest St Isle, 53941 St Berthevin, France. Acclimation Animals arrived on site at least 5 days before the experiment to allow optimal acclimation. Selection Animal health was examined on the day before starting the study, to ensure that only animals in good health were selected to enter the testing procedures. Identification: At the beginning of the study, animals were identified with a number on the tail. Each cage was labelled with a record card, indicating the test compound, the dose of administration and the identification of the animals Housing: Rats were housed in cages (1354G (Tecniplast, Lyon), dim 595*380 mm (w*d)), in a room where the air was continuously filtered, thereby avoiding any contamination. During experiments, rats were caged in groups of five (300-400 g) at a constant temperature with a day/night cycle of 12/12 hours. Animals received water (autoclaved water) and nutrition (ref A04C10), ad libitum.
4. Treatment and study design: The treatment was delivered into the ear canal and on the tympanic membrane on anesthetized rats (2.5% isoflurane). The exact volume of administration was determined during this first test and delivered (volume of 20 μL). Both ears were treated. After administration, the animal was kept on a heating pad for 5 minutes, positioned on its side to allow the compound to diffuse through the tympanic membrane. Then the second ear were administered, and the animal kept on its side for 5 minutes. Finally, the animal was kept on a ventral position until its recovery from anesthesia. The diffusion trough the tympanic membrane and into the inner ear and was assessed with the dosage of the perilymph sampling. Tympanic bulla sampling technique: After sacrifice of the rats, the right tympanic bulla was collected from each animal and transferred to an Eppendorf tube, weighed individually and frozen at −20° C. until analysis. Perilymph sampling technique: After sacrifice of the rats and extraction of the tympanic bulla from the left ear, a volume of about 1 μL of cochlear fluid at the base of the cochlea was sampled ex vivo. Tubes were weighed individually before and after sampling, and immediately transferred to a −20° C. freezer.
5. Bioanalysis: The concentration of each compound in the perilymph and in the tympanic bulla was quantified using an exploratory LC/MS-MS assay method in outsourcing laboratory (Eurofins Vergeze, France). The concentration of amitriptyline in plasma was assessed.
The same materials and methods were used as in Example 1.

[2] = Further pharmacokinetics study, apricot oil formulations: concentration in perilymph (Example 3); assay type: in vivo, male Long Evans rats
Method: Apricot oil is present in the formulation as a solubilizing agent. α-(-)-bisabolol is used as diffusing agent. […] 2. […] 3. […] 4. […] Both ears were treated. […] 5. […]

[3] = Pharmacokinetics after single ear canal administration: concentration in plasma; assay type: in vivo, male Long Evans rats; conditions: from 1 to 8 hours after administration
Method: 2. […] 3. […] Animals received water (autoclaved water) and nutrition (ref […]), ad libitum. 4. […] Both ears were treated. […] Perilymph sampling technique: […] […] 5. […] The concentration of amitriptyline in plasma was assessed.

[4] = after 8 hours from the administration onto the tympanic membrane, Example 1 conclusion
[5] = after 8 hours from the administration onto the tympanic membrane, Example 3 conclusion

| SMILES | Presence within the inner ear (perilymph) ([1]; rat, in vivo) | Presence within the inner ear (perilymph) [1, 4] | also measured |
| --- | --- | --- | --- |
| O=c1cc(-c2ccccc2)oc2c(O)c(O)ccc12 [7,8-dihydroxyflavone] | present |  | Presence within the inner ear (perilymph) ([2]; rat, in vivo): present |
| CN(C)CCC=C1c2ccccc2CCc2ccccc21 [amitriptyline] | present |  | Presence in plasma [3]: present in plasma |
| C=C(C)[C@@H]1CCC(C)=C[C@H]1c1c(O)cc(CCCCC)cc1O [cannabidiol] |  | present |  |
| C[C@@H]1C[C@H]2[C@@H]3CCC4=CC(=O)C=C[C@]4(C)[C@@]3(F)[C@@H](O)C[C@]2(C)[C@@]1(O)C(=O)CO [dexamethasone] | present |  | Presence within the inner ear (perilymph) [2, 5]: present |
| COc1ccc2c(c1)[C@]13CCCC[C@@H]1[C@H](C2)N(C)CC3 [dextromethorphan] |  | present |  |
| CC1CCCCC1(c1cccs1)N1CCCCC1 (stereo not shown) [gacyclidine] |  | present |  |
| CCN(CC)CC(=O)Nc1c(C)cccc1C [lidocaine] |  |  | Presence within the inner ear (perilymph) [2, 5]: present |
| CCCN[C@H]1CCc2nc(N)sc2C1 [pramipexole] | present |  |  |
| CCCN(CCC)CCc1cccc2c1CC(=O)N2 [ropinirole] | present |  |  |
| CC(C)c1cc2[nH]c(=O)n(NS(C)(=O)=O)c(=O)c2cc1-c1ccnn1C [selurampanel] |  | present |  |
